# Reference: ChEMBL document CHEMBL5620341, “CSF1R inhibitors are emerging immunotherapeutic drugs for cancer treatment” (Eur J Med Chem, 2023)
# Assays:
# [1] = Unbound fraction in mouse plasma; format: ADME, cell-free
# [2] = Solubility of compound in PBS at pH 7.4; format: physicochemical
# [3] = target: T1, Macrophage colony-stimulating factor 1 receptor (Mus musculus, UniProt P09581); test: Inhibition of CSF1R in mouse BMDM cells; format: cell-based
# T1 sequence (P09581 whole entry): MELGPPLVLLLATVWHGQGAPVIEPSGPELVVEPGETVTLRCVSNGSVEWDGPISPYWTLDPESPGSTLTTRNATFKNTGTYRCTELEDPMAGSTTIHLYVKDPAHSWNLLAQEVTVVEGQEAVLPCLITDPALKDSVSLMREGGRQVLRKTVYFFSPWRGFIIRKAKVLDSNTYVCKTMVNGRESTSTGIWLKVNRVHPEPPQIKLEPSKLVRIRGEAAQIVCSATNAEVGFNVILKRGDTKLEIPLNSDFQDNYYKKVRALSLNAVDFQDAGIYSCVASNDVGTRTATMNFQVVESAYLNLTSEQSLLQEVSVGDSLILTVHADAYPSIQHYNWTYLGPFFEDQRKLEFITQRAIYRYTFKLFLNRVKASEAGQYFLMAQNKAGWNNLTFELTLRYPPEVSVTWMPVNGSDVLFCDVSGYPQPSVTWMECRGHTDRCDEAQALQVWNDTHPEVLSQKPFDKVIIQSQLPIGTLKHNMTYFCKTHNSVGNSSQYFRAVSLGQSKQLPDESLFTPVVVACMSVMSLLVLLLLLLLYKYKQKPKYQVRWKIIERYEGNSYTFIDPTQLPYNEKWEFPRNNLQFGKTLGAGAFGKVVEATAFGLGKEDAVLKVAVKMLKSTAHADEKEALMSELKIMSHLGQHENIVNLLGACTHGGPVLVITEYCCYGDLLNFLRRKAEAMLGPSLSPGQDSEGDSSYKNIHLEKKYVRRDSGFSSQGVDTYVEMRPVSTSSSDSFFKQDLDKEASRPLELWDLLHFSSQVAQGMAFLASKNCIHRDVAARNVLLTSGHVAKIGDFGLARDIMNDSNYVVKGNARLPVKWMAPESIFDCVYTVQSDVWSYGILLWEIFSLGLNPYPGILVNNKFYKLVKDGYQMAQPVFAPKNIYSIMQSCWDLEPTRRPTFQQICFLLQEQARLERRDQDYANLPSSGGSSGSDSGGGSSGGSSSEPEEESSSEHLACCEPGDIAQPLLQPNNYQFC
# [4] = test system: NFS-60; test: Growth inhibition of mouse NFS-60 cells; format: functional
# [5] = target: T1, Macrophage colony-stimulating factor 1 receptor; test: Inhibition of CSF1R autophosphorylation in mouse RAW264.7 cells measured after 4 hrs by Western blot analysis; format: cell-based
# [6] = test system: CT26; test: Antiproliferative activity against mouse CT26 cells assessed as inhibition of cell growth measured after 6 days by MTT assay; format: functional, cell-based; details: CT26, 144 h
# [7] = Metabolic stability in mouse liver microsomes assessed as half life; format: ADME, Microsome
# [8] = Inhibition of human CSF1R-autoinhibited by discoverX kinome scan assay
# [9] = target: T2, Macrophage colony-stimulating factor 1 receptor (Homo sapiens, UniProt P07333); test: Inhibition of CSF1R (unknown origin) preincubated for 60 mins measured after 1 hr by ADP-Glo assay
# [10] = target: T2, Macrophage colony-stimulating factor 1 receptor; test: Binding affinity to CSF1R (unknown origin) assessed as dissociation constant
# [11] = test system: EMT6; test: Antitumor activity against mouse EMT6 cells allografted in BALB/c mouse assessed as reduction in tumor growth inhibition administered via oral gavage relative to control; format: functional
# [12] = target: Receptor-type tyrosine-protein kinase FLT3 (Homo sapiens, UniProt P36888, ITD); test: Inhibition of FLT3-ITD mutant phosphorylation in human HEK-293T cells incubated for 2 hrs; format: cell-based
# [13] = target: Mast/stem cell growth factor receptor Kit (Homo sapiens, UniProt P10721); test: Inhibition of c-KIT (unknown origin) using TK as substrate incubated for 50 mins in presence of ATP by HTRF method
# [14] = Inhibition of FGFR (unknown origin); set-up: species or system Homo sapiens
# [15] = test system: ID8; test: Cytotoxicity against mouse ID8 cells; format: functional
# [16] = Oral bioavailability in CD-1 mouse at 3 mg/kg; format: ADME, organism-based; details: in vivo
# [17] = target: Receptor-type tyrosine-protein kinase FLT3 (Homo sapiens, UniProt P36888); test: Binding affinity to human FLT3 assessed as dissociation constant
# [18] = target: Vascular endothelial growth factor receptor 1 (Homo sapiens, UniProt P17948); test: Inhibition of VEGFR1 (unknown origin)
# [19] = test system: HUVEC; test: Antiproliferative activity against FGF stimulated HUVEC cells assessed as reduction in cell viability incubated for 72 hrs by MTT assay; details: Homo sapiens
# [20] = target: T1, Macrophage colony-stimulating factor 1 receptor; test: Inhibition of CSF1R in mouse RAW264.7 cells assessed as reduction in AKT phosphorylation measured after 4 hrs by Western blot analysis; format: cell-based
# [21] = target: T3, Vascular endothelial growth factor receptor 2 (Homo sapiens, UniProt P35968); test: Inhibition of VEGFR2 (unknown origin)
# [22] = target: T4, Tyrosine-protein kinase Mer (Homo sapiens, UniProt Q12866); test: Inhibition of human MERTK by discoverX kinome scan assay
# T4 sequence (Q12866 whole entry): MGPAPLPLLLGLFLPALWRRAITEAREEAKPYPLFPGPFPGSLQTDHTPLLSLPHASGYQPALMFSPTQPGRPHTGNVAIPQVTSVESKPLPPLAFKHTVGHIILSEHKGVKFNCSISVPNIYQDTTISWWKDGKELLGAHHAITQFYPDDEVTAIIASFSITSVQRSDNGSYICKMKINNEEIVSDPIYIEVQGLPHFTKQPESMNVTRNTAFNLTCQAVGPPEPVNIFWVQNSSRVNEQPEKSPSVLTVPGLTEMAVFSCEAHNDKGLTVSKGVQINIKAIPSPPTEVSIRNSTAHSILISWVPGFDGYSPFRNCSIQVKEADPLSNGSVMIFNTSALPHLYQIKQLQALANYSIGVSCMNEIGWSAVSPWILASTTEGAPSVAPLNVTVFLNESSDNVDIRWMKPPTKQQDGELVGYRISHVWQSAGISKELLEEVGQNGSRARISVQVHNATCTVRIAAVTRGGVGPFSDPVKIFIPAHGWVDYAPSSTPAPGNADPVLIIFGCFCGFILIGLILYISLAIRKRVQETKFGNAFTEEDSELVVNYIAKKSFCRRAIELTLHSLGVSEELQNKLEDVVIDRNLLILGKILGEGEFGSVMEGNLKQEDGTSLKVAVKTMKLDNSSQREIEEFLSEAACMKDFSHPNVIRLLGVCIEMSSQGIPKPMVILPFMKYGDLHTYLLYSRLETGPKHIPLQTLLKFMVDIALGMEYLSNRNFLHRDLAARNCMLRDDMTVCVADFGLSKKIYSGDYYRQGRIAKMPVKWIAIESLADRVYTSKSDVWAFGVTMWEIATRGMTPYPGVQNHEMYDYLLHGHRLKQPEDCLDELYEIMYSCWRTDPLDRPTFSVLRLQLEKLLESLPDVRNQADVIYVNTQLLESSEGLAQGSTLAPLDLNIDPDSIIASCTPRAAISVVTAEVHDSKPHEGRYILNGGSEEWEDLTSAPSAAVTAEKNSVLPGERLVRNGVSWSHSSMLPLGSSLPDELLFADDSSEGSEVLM
# [23] = test system: HUVEC; test: Antiproliferative activity against VEGF stimulated HUVEC cells assessed as reduction in cell viability incubated for 72 hrs by MTT assay; details: Homo sapiens
# [24] = test system: NFS-60; test: Cytotoxicity against mouse NFS-60 cells assessed as cell growth inhibition incubated for 72 hrs by Cell titer-glo assay; details: NFS-60, 72 h
# [25] = Cytotoxicity against mouse RAW264.7 cells assessed as reduction in cell viability incubated for 48 hrs by MTT assay; format: toxicity, cell-based
# [26] = test system: NFS-60; test: Growth inhibition of mouse NFS-60 cells incubated for 72 hrs by Cell titer-glo assay; format: functional
# [27] = Oral bioavailability in Sprague-Dawley rat at 10 mg/kg by LC-MS/MS analysis; format: ADME, organism-based; details: in vivo
# [28] = Half life in Sprague-Dawley rat at 10 mg/kg, po or 1 mg/kg, iv by LC-MS/MS analysis; format: ADME, organism-based; details: in vivo
# [29] = target: RAF proto-oncogene serine/threonine-protein kinase (Homo sapiens, UniProt P04049); test: Inhibition of c-RAF (unknown origin)
# [30] = target: T3, Vascular endothelial growth factor receptor 2; test: Inhibition of KDR (unknown origin) using peptide as substrate incubated for 90 mins in presence of ATP by HTRF method
# [31] = target: Tyrosine-protein kinase Lck (Homo sapiens, UniProt P06239); test: Inhibition of LCK (unknown origin)
# [32] = test system: MC-38; test: Antitumor activity against mouse MC38 cells allografted in C57BL/6 mouse assessed as reduction in tumor volume at 5 to 10 mg/kg administered via oral gavage for 21 days relative to control; format: functional; set-up: scale not given: the % may be the effect or the level left; details: dose 5-10 mg/kg, time 21 day
# [33] = target: T3, Vascular endothelial growth factor receptor 2; test: Inhibition of human VEGFR2 in presence of ATP by mobility shift assay
# [34] = target: Platelet-derived growth factor receptor beta (Homo sapiens, UniProt P09619); test: Inhibition of PDGFRbeta (unknown origin)
# T2 sequence (P07333 whole entry): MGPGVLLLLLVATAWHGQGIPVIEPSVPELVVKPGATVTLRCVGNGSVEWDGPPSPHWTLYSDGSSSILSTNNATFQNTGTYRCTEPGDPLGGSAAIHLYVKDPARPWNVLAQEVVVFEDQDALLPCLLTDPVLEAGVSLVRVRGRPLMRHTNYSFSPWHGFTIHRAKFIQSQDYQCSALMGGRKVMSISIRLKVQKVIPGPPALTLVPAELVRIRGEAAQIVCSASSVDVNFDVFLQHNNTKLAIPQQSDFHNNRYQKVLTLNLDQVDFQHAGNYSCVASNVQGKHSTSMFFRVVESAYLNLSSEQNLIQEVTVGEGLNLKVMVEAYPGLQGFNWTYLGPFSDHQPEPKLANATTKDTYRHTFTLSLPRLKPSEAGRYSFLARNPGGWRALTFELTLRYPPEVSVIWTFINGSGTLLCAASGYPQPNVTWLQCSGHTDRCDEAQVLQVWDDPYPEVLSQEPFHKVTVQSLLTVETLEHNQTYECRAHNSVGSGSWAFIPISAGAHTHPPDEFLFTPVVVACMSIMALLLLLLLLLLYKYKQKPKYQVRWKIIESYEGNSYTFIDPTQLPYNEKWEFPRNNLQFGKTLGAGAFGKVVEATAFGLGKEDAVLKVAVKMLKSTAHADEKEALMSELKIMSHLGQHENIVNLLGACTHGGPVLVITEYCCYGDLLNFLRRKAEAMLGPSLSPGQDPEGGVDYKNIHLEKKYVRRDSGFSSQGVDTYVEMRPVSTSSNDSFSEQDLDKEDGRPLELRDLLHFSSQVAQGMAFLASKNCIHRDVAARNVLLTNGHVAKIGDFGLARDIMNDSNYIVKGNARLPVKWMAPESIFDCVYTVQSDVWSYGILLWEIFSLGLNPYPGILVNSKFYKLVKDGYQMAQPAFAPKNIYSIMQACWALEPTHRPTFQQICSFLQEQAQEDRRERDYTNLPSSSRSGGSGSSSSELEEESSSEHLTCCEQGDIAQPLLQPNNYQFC
# T3 sequence (P35968 whole entry): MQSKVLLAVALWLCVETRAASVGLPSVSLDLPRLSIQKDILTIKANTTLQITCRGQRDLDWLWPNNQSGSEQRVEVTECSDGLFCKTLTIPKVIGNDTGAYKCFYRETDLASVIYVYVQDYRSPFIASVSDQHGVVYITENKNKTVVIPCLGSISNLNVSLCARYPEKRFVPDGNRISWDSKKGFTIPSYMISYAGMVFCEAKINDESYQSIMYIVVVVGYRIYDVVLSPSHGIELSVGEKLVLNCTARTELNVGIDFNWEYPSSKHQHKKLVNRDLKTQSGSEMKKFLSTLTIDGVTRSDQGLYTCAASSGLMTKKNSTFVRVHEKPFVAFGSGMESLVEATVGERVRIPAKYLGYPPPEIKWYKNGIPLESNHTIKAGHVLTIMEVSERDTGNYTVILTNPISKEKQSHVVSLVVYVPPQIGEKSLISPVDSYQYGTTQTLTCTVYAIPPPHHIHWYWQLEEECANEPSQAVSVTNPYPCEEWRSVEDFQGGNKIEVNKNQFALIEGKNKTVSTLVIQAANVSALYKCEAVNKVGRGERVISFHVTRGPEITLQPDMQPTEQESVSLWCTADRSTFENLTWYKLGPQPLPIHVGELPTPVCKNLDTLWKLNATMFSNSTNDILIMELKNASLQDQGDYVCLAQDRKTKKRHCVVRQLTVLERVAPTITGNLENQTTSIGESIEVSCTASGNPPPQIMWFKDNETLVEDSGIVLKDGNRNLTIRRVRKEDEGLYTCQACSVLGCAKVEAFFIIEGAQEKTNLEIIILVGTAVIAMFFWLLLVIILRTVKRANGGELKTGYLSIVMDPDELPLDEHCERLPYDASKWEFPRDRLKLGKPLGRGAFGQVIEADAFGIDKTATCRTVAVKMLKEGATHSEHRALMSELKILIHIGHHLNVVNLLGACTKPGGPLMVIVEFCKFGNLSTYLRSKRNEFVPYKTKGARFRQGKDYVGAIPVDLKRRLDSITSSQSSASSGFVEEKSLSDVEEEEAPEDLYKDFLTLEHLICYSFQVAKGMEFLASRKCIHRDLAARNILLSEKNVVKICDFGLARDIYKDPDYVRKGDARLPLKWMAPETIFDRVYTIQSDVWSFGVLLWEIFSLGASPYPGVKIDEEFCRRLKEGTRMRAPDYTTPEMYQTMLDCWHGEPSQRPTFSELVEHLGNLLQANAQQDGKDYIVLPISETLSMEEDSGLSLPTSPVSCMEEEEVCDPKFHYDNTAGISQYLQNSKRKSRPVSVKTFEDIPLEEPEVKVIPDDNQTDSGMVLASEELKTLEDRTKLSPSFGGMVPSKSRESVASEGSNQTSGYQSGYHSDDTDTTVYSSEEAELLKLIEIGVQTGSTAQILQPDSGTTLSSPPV
# RAF proto-oncogene serine/threonine-protein kinase, sequence (P04049 whole entry): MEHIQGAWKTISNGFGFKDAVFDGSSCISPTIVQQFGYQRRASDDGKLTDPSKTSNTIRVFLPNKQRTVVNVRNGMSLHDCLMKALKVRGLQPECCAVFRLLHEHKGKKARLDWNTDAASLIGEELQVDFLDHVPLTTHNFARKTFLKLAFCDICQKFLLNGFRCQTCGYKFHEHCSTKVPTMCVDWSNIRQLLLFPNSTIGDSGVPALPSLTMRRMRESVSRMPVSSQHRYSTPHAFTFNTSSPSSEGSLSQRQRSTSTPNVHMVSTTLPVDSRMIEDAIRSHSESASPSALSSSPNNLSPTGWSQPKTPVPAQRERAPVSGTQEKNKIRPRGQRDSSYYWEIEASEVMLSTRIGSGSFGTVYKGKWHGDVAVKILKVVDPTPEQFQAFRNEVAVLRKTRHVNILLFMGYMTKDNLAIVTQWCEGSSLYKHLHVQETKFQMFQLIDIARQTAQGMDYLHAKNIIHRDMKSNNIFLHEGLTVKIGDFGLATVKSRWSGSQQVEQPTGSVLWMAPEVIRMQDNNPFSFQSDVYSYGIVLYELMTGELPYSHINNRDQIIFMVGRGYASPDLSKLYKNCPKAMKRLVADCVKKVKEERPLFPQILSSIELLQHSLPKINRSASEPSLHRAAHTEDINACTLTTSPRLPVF
# Receptor-type tyrosine-protein kinase FLT3 (Homo sapiens, UniProt P36888, ITD), sequence (P36888 whole entry, looked up, stated change not applied): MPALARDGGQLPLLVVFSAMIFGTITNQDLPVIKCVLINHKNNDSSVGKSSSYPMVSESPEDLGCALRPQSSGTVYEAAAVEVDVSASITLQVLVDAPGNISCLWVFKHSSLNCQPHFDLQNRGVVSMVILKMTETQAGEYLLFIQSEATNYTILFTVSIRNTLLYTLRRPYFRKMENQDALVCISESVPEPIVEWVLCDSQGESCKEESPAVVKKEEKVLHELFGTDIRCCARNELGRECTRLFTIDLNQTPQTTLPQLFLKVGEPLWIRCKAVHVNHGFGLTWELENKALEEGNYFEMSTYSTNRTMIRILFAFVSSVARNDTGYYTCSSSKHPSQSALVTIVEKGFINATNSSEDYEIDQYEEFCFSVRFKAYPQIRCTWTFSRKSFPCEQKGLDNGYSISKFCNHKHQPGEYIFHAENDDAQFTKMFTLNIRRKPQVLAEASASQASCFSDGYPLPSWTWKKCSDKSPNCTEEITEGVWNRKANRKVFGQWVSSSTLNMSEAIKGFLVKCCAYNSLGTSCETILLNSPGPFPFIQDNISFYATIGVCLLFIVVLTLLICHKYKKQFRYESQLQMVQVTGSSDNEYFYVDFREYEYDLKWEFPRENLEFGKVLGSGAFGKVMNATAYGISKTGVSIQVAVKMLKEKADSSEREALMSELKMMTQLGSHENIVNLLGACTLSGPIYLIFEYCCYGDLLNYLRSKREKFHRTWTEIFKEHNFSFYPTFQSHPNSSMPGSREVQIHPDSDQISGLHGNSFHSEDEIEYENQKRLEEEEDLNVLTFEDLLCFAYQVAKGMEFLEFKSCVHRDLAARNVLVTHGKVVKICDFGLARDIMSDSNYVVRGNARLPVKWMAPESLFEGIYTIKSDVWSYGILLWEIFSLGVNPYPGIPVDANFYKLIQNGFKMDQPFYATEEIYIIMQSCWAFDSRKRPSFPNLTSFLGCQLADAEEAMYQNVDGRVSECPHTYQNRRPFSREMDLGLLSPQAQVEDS
# Mast/stem cell growth factor receptor Kit, sequence (P10721 whole entry): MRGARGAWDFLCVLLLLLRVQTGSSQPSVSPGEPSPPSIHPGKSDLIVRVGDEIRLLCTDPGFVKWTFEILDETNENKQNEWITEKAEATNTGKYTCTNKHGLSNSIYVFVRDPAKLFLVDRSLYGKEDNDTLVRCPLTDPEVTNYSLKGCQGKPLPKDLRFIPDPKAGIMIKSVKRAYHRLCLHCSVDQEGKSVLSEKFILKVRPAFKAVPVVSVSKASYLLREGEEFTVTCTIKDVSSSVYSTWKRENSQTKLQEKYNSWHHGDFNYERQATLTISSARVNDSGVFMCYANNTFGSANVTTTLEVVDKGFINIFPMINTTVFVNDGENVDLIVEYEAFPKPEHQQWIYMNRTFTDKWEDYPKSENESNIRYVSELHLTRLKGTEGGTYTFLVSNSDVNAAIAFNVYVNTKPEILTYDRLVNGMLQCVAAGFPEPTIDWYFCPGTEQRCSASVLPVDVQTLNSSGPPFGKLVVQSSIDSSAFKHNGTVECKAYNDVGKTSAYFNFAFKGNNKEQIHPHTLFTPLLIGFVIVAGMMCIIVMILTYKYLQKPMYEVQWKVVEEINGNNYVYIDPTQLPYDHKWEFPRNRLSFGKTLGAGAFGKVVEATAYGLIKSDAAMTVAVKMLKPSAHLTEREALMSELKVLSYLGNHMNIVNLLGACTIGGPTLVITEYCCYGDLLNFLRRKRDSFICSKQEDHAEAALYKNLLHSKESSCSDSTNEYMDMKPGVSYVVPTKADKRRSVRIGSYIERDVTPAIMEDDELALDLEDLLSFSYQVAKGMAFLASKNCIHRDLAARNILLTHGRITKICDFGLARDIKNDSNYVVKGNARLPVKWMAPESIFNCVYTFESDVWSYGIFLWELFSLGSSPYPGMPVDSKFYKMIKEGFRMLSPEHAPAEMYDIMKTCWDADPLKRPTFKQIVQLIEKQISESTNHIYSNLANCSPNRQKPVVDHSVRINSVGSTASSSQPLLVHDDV
smiles,measurement,setting,value
COc1ccc(N2C(=O)N(c3c(C)cccc3Cl)Cc3cnc(Nc4ccc(C5CCN(C)CC5)cc4OC)nc32)nc1,fraction unbound,[1],0.06
same,solubility,[2],428 µM
CCN(CC)CCNC(=O)c1c(C)[nH]c(/C=C2\C(=O)Nc3ccc(F)cc32)c1C [SUNITINIB],IC50,[3],4.1 nM
Cc1cccc(Cn2nc(C)c3c(NC(=O)c4csc5c(N)ncnc45)cccc32)n1,GI50,[4],80 nM
COc1ncc(F)cc1CNc1ccc(Cc2c[nH]c3ncc(C)cc23)c(F)n1 [PLX-5622],IC50,[5],26 nM
CNC(=O)c1cc(Oc2ccc3nc(N[C@@H]4CCCC[C@H]4O)sc3c2)ccn1 [SOTULETINIB],IC50,[6],1 nM
COc1ccc(N(C(=O)Nc2c(C)cccc2C)c2cc(Nc3ccc(N4CCN(C)CC4)cc3)ncn2)c(OC)c1,half-life,[7],> 2 h
Cn1cc(-c2cc(Cc3ccc(NC(=O)NC(=O)C(C)(C)C)nc3)ccn2)cn1,IC50,[8],23.4 nM
same,IC50,[9],23.4 nM
CCn1cc(OCC(F)(F)F)c(C(=O)Nc2ccc(Oc3ccnc4cc(OC)c(OC)cc34)cn2)n1,Kd,[10],< 100 nM
same,TGI,[11],>50%
Cc1cc(NC(=O)c2cccc3cc(-c4cccc5[nH]nc(N)c45)ccc23)ccc1F,IC50,[3],93 nM
CC1(C)CC=C(c2nc(C3CC(C)(C)OC(C)(C)C3)ccc2NC(=O)c2nc(C#N)c[nH]2)CC1 [EDICOTINIB],IC50,[12],190 nM
same,IC50,[13],20 nM
COc1cc(OC)c(Cl)c(-c2ccc3c(NC(=O)c4ccc(N5CCNC(C)(C)C5)cc4)n[nH]c3n2)c1Cl,IC50,[14],17.3 nM
Cc1cccc(Cn2nc(C3CC3)c3c(NC(=O)c4cnc5cc(OCCN6CCN(C)CC6)ccn45)cccc32)n1 [ARRY-382],ED50,[15],3 mg/kg
Cn1cc(-c2cc(Oc3ccc(NC(=O)N4CCC5(CCC5)C4=O)nc3)ccn2)cn1,bioavailability,[16],100%
Cn1cc(-c2cc(Oc3ccc(NC(=O)N4CCC5(CCC(F)(F)CC5)C4=O)nc3)ccn2)cn1,bioavailability,[16],100%
CN1CCN(c2ccc(C(=O)Nc3n[nH]c4cc(OCCOCc5ccc(C(F)(F)F)cc5)ccc34)cc2)CC1,Kd,[17],< 1 nM
same,Kd,[10],< 1 nM
Cc1cc2cc(Oc3ccnc(Nc4cccc(CS(=O)(=O)NCCN(C)C)c4)n3)ccc2[nH]1 [SURUFATINIB],IC50,[18],1 nM
same,IC50,[19],< 50 nM
same,IC50,[20],79 nM
same,IC50,[21],1 nM
same,IC50,[22],4 nM
same,IC50,[23],< 50 nM
Cc1ccc(F)c(NC(=O)Nc2ccc(-c3cccc4[nH]nc(N)c34)cc2)c1 [LINIFANIB],IC50,[24],30 nM
same,IC50 at 48 h,[25],8600 nM
same,GI50,[26],4400 nM
CNc1ccc(-c2cnc(Nc3cnc(C4CC4)nc3)cc2C)c2c1C(=O)NC2,bioavailability,[27],106%
same,half-life,[28],2.53 h
O=C(Nc1ccc(OC(F)(F)F)cc1)c1sccc1NCc1ccnc2ccccc12 [OSI-930],IC50,[29],15 nM
same,IC50,[30],15 nM
same,IC50,[31],15 nM
Cc1nc(-c2cnc(NC(C)C)n(C)c2=O)ccc1Oc1ccnc(-c2cnn(C)c2)c1 [VIMSELTINIB],Activity,[32],67%
CNC(=O)c1cccc2cc(Oc3ccnc(NC(=O)c4ccc(N5C[C@@H](C)N[C@@H](C)C5)cc4)c3)ccc12,IC50,[33],< 10 nM
same,IC50,[34],< 10 nM
